# Biological target: T1, purified recombinant human PARP (Homo sapiens, UniProt P09874)
# T1 construct: purchased Trevigan (Gaithersburg, Md.)
# Test: PARP enzyme assay (IC50), [3H]NAD incorporation
# Format: biochemical
# Conditions: approximate IC50 values; 25° C., 15 minutes
# Experimental: The reaction is initiated by incubating the mixture at 25° C. After 15 minutes of incubation. the reaction is terminated by adding 500 microliters of ice cold 20% (w/v) trichloroacetic acid. The precipitate formed is transferred onto a glass fiber filter (Packard Unifilter-GF/B) and washed three times with ethanol. After the filter is dried, the radioactivity is determined by scintillation counting.
# T1 sequence (P09874 whole entry): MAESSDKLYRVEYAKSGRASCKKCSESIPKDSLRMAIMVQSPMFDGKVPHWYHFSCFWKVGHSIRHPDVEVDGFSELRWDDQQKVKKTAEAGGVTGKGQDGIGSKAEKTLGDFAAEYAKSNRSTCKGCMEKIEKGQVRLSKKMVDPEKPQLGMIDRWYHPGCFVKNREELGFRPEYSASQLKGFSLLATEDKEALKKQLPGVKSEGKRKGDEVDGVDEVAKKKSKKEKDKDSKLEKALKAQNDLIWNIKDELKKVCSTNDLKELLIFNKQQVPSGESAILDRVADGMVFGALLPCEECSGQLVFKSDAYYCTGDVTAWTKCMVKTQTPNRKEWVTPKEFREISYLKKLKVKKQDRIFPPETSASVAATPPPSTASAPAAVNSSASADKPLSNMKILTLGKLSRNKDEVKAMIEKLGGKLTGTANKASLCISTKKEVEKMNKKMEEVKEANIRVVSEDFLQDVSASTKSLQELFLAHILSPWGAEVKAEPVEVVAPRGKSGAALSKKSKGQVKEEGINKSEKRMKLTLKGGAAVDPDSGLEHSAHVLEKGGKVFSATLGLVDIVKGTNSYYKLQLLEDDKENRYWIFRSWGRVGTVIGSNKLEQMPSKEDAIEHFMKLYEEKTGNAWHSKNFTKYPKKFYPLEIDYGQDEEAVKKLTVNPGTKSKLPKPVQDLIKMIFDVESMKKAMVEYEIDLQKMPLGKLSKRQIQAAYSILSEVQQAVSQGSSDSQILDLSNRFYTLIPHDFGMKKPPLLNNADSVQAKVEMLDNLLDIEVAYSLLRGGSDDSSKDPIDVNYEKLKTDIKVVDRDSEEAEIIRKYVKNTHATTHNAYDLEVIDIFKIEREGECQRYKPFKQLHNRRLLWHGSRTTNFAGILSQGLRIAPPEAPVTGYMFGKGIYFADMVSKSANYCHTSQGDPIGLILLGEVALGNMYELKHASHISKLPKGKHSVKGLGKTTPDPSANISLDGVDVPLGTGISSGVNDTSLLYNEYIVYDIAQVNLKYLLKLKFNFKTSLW
row,Compound,IC50
1,COC(=O)[C@@H]1CCCN1C(=O)c1ccc2c(c1)[nH]c(=O)c1ccccc12 [Compound 41],118 nM
2,CCC(C)C(NC(=O)c1ccc2c(c1)[nH]c(=O)c1ccccc12)C(=O)O (centres unmarked) [Compound 26],711 nM
3,O=C(O)CCC(NC(=O)c1ccc2c(c1)[nH]c(=O)c1ccccc12)C(=O)O (centres unmarked) [Compound 25],272 nM
4,CC(=O)Nc1cc2c(cc1C)[nH]c(=O)c1ccccc12 [Compound 45],229 nM
5,O=c1[nH]c2ccc(S(=O)(=O)NCCN3CCOCC3)cc2c2ccccc12 [Compound 4],140 nM
6,CCOC(=O)C1CCN(S(=O)(=O)c2ccc3[nH]c(=O)c4ccccc4c3c2)CC1 [Compound 65],200 nM
7,COC(=O)C1CCCN1S(=O)(=O)c1ccc2[nH]c(=O)c3ccccc3c2c1 (centres unmarked) [Compound 58],1100 nM
8,O=C(c1ccc2c(c1)[nH]c(=O)c1ccccc12)N1CCOCC1 [Compound 2],100000 nM
9,O=C(O)CCC(=O)Nc1ccc2[nH]c(=O)c3ccccc3c2c1 [Compound 27],111 nM
10,Cc1cc2[nH]c(=O)c3ccccc3c2cc1NC(=O)CCc1ccccc1 [Compound 59],7500 nM
11,Cc1cc2[nH]c(=O)c3ccccc3c2cc1NC(=O)Cc1ccc(F)cc1 [Compound 62],449 nM
12,COc1ccc(S(=O)(=O)Nc2cc3c(cc2C)[nH]c(=O)c2ccccc23)cc1 [Compound 60],11500 nM
13,O=C(NCCc1ccccc1)c1ccc2c(c1)[nH]c(=O)c1cc(F)ccc12 [Compound 18],150 nM
14,O=c1[nH]c2ccc(S(=O)(=O)N3CCCC(CO)C3)cc2c2ccccc12 (centres unmarked) [Compound 67],164 nM
15,O=C(O)[C@@H]1CCCN1C(=O)c1ccc2c(c1)[nH]c(=O)c1cc(F)ccc12 [Compound 21],124 nM
16,O=C(NCCCc1ccccc1)c1ccc2c(c1)[nH]c(=O)c1cc(F)ccc12 [Compound 57],415 nM
17,Cc1cc2[nH]c(=O)c3ccccc3c2cc1NC(=O)C(C)Br (centres unmarked) [Compound 63],174 nM
18,Cc1cc2[nH]c(=O)c3ccccc3c2cc1NC(=O)c1cccc(F)c1 [Compound 52],1200 nM
19,Cc1ccc(S(=O)(=O)Nc2ccc3[nH]c(=O)c4ccccc4c3c2)cc1 [Compound 1],120 nM
20,NCCCCC(NC(=O)c1ccc2c(c1)[nH]c(=O)c1ccccc12)C(=O)O (centres unmarked) [Compound 28],341 nM
21,Cc1ccc(S(=O)(=O)Nc2cc3c(cc2C)[nH]c(=O)c2ccccc23)cc1 [Compound 56],5900 nM
22,COC(=O)[C@@H]1CCCN1C(=O)c1ccc2c(c1)[nH]c(=O)c1cc(F)ccc12 [Compound 19],157 nM
23,Cc1cc2[nH]c(=O)c3ccccc3c2cc1NC(=O)C[N+](C)(C)C [Compound 54],195 nM
24,O=C(NCc1ccccc1)c1ccc2c(c1)[nH]c(=O)c1cc(F)ccc12 [Compound 16],399 nM
25,O=C(c1ccc(F)cc1)C1CCN(S(=O)(=O)c2ccc3[nH]c(=O)c4ccccc4c3c2)CC1 [Compound 61],319 nM
26,O=c1[nH]c2ccc(S(=O)(=O)O)cc2c2ccccc12 [Compound 22],115 nM
27,Cc1cc2[nH]c(=O)c3ccccc3c2cc1NC(=O)CCl [Compound 47],152 nM
28,CC(=O)NCCN1CCN(S(=O)(=O)c2ccc3[nH]c(=O)c4ccccc4c3c2)CC1 [Compound 68],142 nM

# The next lines start with the values.
row,IC50,Compound
1,56 nM,CC(NC(=O)c1ccc2c(c1)[nH]c(=O)c1ccccc12)C(=O)O (centres unmarked) [Compound 24]
2,25 nM,CC(C)[C@H](NC(=O)c1ccc2c(c1)[nH]c(=O)c1ccccc12)C(=O)O [Compound 39]
3,80 nM,O=C(CCl)Nc1ccc2[nH]c(=O)c3ccccc3c2c1 [Compound 5]
4,108 nM,CN1CCN(S(=O)(=O)c2ccc3c(c2)[nH]c(=O)c2cc(F)ccc23)CC1 [Compound 43]
5,35 nM,O=C(NCCN1CCOCC1)c1ccc2c(c1)[nH]c(=O)c1ccccc12 [Compound 40]
6,33 nM,Cc1cccc2c(=O)[nH]c3cc(C(F)(F)F)c(NC(=O)CCl)cc3c12 [Compound 20]
7,36 nM,C[C@H](NC(=O)c1ccc2c(c1)[nH]c(=O)c1ccccc12)C(=O)O [Compound 32]
8,54 nM,CCCCC(NC(=O)c1ccc2c(c1)[nH]c(=O)c1ccccc12)C(=O)O (centres unmarked) [Compound 29]
9,37 nM,COC(=O)c1ccc2c(c1)[nH]c(=O)c1cc(F)ccc12 [Compound 48]
10,83 nM,O=C(N[C@@H](CS)C(=O)O)c1ccc2c(c1)[nH]c(=O)c1ccccc12 [Compound 35]
11,60 nM,O=c1[nH]c2ccc(S(=O)(=O)NCCN(CCO)CCO)cc2c2ccccc12 [Compound 8]
12,19 nM,O=C(NC(Cc1ccc2ccccc2c1)C(=O)O)c1ccc2c(c1)[nH]c(=O)c1ccccc12 (centres unmarked) [Compound 42]
13,99 nM,CC(C)N(C(=O)c1ccc2c(c1)[nH]c(=O)c1ccccc12)C(C)C [Compound 66]
14,90 nM,O=C(O)[C@H]1CCCN1C(=O)c1ccc2c(c1)[nH]c(=O)c1ccccc12 [Compound 10]
15,80 nM,O=C(NCCOCCO)c1ccc2c(c1)[nH]c(=O)c1ccccc12 [Compound 50]
16,94 nM,O=c1[nH]c2ccc(S(=O)(=O)NCc3ccncc3)cc2c2ccccc12 [Compound 55]
17,45 nM,O=C(N[C@@H](Cc1ccc(F)cc1)C(=O)O)c1ccc2c(c1)[nH]c(=O)c1ccccc12 [Compound 33]
18,74 nM,O=c1[nH]c2ccc(S(=O)(=O)NCCN3CCCC3)cc2c2ccccc12 [Compound 53]
19,88 nM,NCCCC[C@H](NC(=O)c1ccc2c(c1)[nH]c(=O)c1ccccc12)C(=O)O [Compound 37]
20,99 nM,NCCN1CCN(S(=O)(=O)c2ccc3[nH]c(=O)c4ccccc4c3c2)CC1 [Compound 51]
21,69 nM,O=C(Nc1ccc2[nH]c(=O)c3ccccc3c2c1)c1ccc(F)cc1 [Compound 31]
22,31 nM,O=C(N[C@H](C(=O)O)c1ccccc1)c1ccc2c(c1)[nH]c(=O)c1ccccc12 [Compound 38]
23,83 nM,O=C(NC(CO)C(=O)O)c1ccc2c(c1)[nH]c(=O)c1ccccc12 (centres unmarked) [Compound 30]
24,19 nM,O=c1[nH]c2cc(S(=O)(=O)NCCN3CCOCC3)ccc2c2ccc(F)cc12 [Compound 44]
25,40 nM,O=C(NCCN1CCOCC1)c1ccc2c(c1)[nH]c(=O)c1ccccc12 [Compound 9]
26,30 nM,C[N+](C)(C)CC(=O)Nc1ccc2[nH]c(=O)c3ccccc3c2c1 [Compound 7]
27,43 nM,O=c1[nH]c2ccc(S(=O)(=O)NC3CN4CCC3CC4)cc2c2ccccc12 (centres unmarked) [Compound 64]
28,65 nM,O=C(N[C@@H](Cc1ccccc1)C(=O)O)c1ccc2c(c1)[nH]c(=O)c1ccccc12 [Compound 34]

# From US6723733B2, “Sulfonamide and carbamide derivatives of 6(5H)phenanthridinones and their uses” (Guilford Pharmaceuticals, Inc., priority 2000, dated 2004)
